Patent publication US20100081679A1, “DIAMINOPYRIMIDINES AS FUNGICIDES” (Bayer CropScience AG, priority 2007, published 2010)
Marks after values point to notes of the source that are not given here. Blank lines part the entries; values can stand above or below the compound they belong to.

Experiment: logP determination via retention times, calibrated with unbranched alkan-2-ones
Assay type: physicochemical
[1] = method *: HPLC reversed-phase C18, 40° C., 0.1% aqueous formic acid and acetonitrile, linear gradient 10% to 95% acetonitrile
[2] = HPLC on reversed-phase C18, method *: 40° C., 0.1% aqueous formic acid and acetonitrile, linear gradient 10% to 95% acetonitrile
[3] = HPLC reversed-phase C 18, EEC Directive 79/831 Annex V.A8, method *: 40° C., 0.1% aqueous formic acid and acetonitrile, linear gradient 10% to 95% acetonitrile
[4] = method **: HPLC, reversed-phase C 18, 43° C., mobile phase 0.1% aqueous phosphoric acid and acetonitrile, linear gradient from 10% to 95% acetonitrile
[5] = HPLC on reversed-phase C18 column (EEC Directive 79/831 Annex V.A8), method *: 40° C., 0.1% aqueous formic acid and acetonitrile, linear gradient 10% to 95% acetonitrile
[6] = HPLC on reversed-phase C18, method *: 40° C., mobile phase 0.1% aqueous formic acid and acetonitrile, linear gradient 10% to 95% acetonitrile
[7] = HPLC on reversed-phase C 18, EEC Directive 79/831 Annex V.A8, method *: 40° C., 0.1% aqueous formic acid and acetonitrile, linear gradient 10% to 95% acetonitrile
[8] = method *: HPLC reversed-phase C 18, temperature 40° C., mobile phase 0.1% aqueous formic acid and acetonitrile, linear gradient 10% to 95% acetonitrile
[9] = method **: HPLC reversed-phase C 18, temperature 43° C., mobile phase 0.1% aqueous phosphoric acid and acetonitrile, linear gradient 10% to 95% acetonitrile
[10] = method *: HPLC, reversed-phase C 18, 40° C., mobile phase 0.1% aqueous formic acid and acetonitrile, linear gradient from 10% to 95% acetonitrile

- logP [1]: 1.8*
Compound: Cc1cnc(Nc2cccc(Cl)c2)nc1NC1CC1 [compound 57]

- logP [2]: 2.01*
Compound: CCCc1ccccc1Nc1ncc(Cl)c(NC2CC2)n1 [compound 912]

- logP [3]: 1.32*
Compound: O=C(O)c1cccc(Nc2ncc(Cl)c(NC3CC3)n2)c1 [compound 785]

- logP [2]: 3.14*
Compound: Clc1cnc(Nc2ccccc2Oc2ccccc2)nc1NC1CC1 [compound 901]

- logP [1]: 2.51*
Compound: CN(C)S(=O)(=O)c1ccc(Nc2ncc(Br)c(NCC3CC3)n2)cc1 [compound 449]

- logP [4]: 1.54**
Compound: CC(=O)NS(=O)(=O)c1ccc(Nc2ncc(Cl)c(NC3CC3)n2)cc1 [compound 1021]

- logP (HPLC on reversed-phase C 18, method **: 43° C., 0.1% aqueous phosphoric acid and acetonitrile, linear gradient 10% to 95% acetonitrile): 1.99**
Compound: COC(=O)Nc1ccc(Nc2ncc(Cl)c(N(C)CC3CC3)n2)cc1 [compound 970]

- logP [3]: 1.18*
Compound: CC1COC(=O)N1c1cccc(Nc2ncc(F)c(NC3CC3)n2)c1 (stereo not drawn) [compound 802]

- logP [5]: 1.51*
Compound: O=S1(=O)Cc2ccc(Nc3ncc(Cl)c(NC4CC4)n3)cc2C1 [compound 245]

- logP [6]: 2.06*
Compound: CCN(C(=O)OC)c1ccc(Nc2ncc(Br)c(NC3CC3)n2)cc1 [compound 303]

- logP [7]: 3.8*
Compound: CCCCC(=O)Oc1ccc(Nc2ncc(Cl)c(NCC3CC3)n2)cc1 [compound 551]

- logP (method **: HPLC reversed-phase C 18, 43° C., 0.1% aqueous phosphoric acid and acetonitrile, linear gradient 10% to 95% acetonitrile): 2.14**
Compound: Cc1ccc(Nc2ncc(Cl)c(NC3CC3)n2)cc1S(=O)(=O)N(C)C [Example 47]

- logP [8]: 1.28*
Compound: COC(=O)Nc1ccc(Nc2ncc(F)c(NC3CC3)n2)cc1 [compound 594]

- logP [3]: 2.88*
Compound: Clc1cnc(Nc2ccccc2)nc1NC1(COc2ccccc2)CC1 [compound 801]

- logP [8]: 1.45*
Compound: CC(=O)c1cccc(Nc2ncc(F)c(NC3CC3)n2)c1 [compound 591]

- logP [9]: 1.78**
- logP [8]: 1.78*;
Compound: CNC(=O)c1cccc(Nc2ncc(C(F)(F)F)c(NC3CC3)n2)c1 [compound 652]

- logP [10]: 3.67*
Compound: CCc1cccc(Nc2ncc(C(F)(F)F)c(NC3CC3)n2)c1 [compound 1034]

- logP [3]: 1.87*
Compound: N#CCc1cc(Nc2ncc(Cl)c(NCC3CC3)n2)ccc1F [compound 816]

- logP [9]: 2.06**
- logP [8]: 2.16*;
Compound: COC(=O)Nc1cccc(Nc2ncc(C(F)(F)F)c(NC3CC3)n2)c1 [compound 660]

- logP [7]: 1.8*
Compound: CCOC(=O)Nc1ccc(Nc2ncc(Cl)c(NCC3CC3)n2)cc1 [compound 543]

- logP [6]: 2.32*
Compound: CCC(=O)c1cccc(Nc2ncc(Br)c(NC3CC3)n2)c1 [compound 305]

- logP [7]: 2.33*
Compound: CC(C)(C)OC(=O)Nc1cccc(Nc2ncc(Cl)c(NCC3CC3)n2)c1 [compound 524]

- logP [1]: 1.84*
Compound: Clc1cnc(Nc2ccccc2)nc1NC1CC1 [Example 76]

- logP [3]: 3.78*
Compound: CC(C)(C)CSCc1ccc(Nc2ncc(Cl)c(NC3CC3)n2)cc1 [compound 823]

- logP [7]: 1.59*
Compound: CN(C)C(=O)c1ccc(Nc2ncc(Cl)c(NCC3CC3)n2)cc1 [compound 509]

- logP [6]: 2.09*
Compound: CC(=O)c1ccc(Nc2ncc(Br)c(NC3CC3)n2)cc1 [compound 357]

- logP [5]: 2.77*
Compound: CC(=O)c1cccc(Nc2ncc(C(F)(F)F)c(NCC3CC3)n2)c1 [compound 211]

- logP [4]: 2.37**
- logP [10]: 2.37*;
Compound: CC1(C)CC1Nc1nc(Nc2ccccc2)ncc1Cl (stereo not drawn) [compound 1027]

- logP [1]: 2.84*
Compound: FC(F)(F)Oc1ccc(Nc2ncc(Cl)c(NC3CC3)n2)cc1 [compound 375]

- logP [10]: 2.11*
Compound: Clc1cnc(Nc2ccc3c(c2)CCC3)nc1NC1CC1 [compound 1000]

- logP [7]: 2.51*
Compound: FC(F)Oc1cccc(Nc2ncc(Cl)c(NC3CC3)n2)c1 [compound 534]

- logP [1]: 2.18*
Compound: O=S(=O)(Cc1ccc(Nc2ncc(Cl)c(NC3CC3)n2)cc1)Nc1ccccc1 [compound 369]

- logP [8]: 2.33*
Compound: Fc1cnc(Nc2cccc(OC(F)(F)F)c2)nc1NC1CC1 [compound 576]

- logP [2]: 1.33*
Compound: CN(C)C(=O)c1cccc(Nc2ncc(Cl)c(NC3CC3)n2)c1 [compound 960]

- logP [7]: 1.68*
Compound: CC(=O)Nc1ccc(Nc2ncc(Cl)c(NCC3CC3)n2)cc1Cl [compound 505]

- logP [2]: 1.97*
Compound: CS(=O)(=O)c1ccc(Nc2ncc(Cl)c(NCC3CC3)n2)cc1 [compound 670]
